Laboratory results from article PMC7307883, “Targeting Cavity-Creating p53 Cancer Mutations with Small-Molecule Stabilizers: the Y220X Paradigm” (ACS Chemical Biology, 2020).
Like-named read-outs stand apart in the source and are kept apart here.

Assays:
p53 Y220C mutant DBD [1] = target: T1, p53 Y220C mutant DBD (Homo sapiens, UniProt P04637, M133L/N239Y/N268D/V203A/Y220C); conditions: ITC, cited from earlier work
T1 construct: the mutant p53 DBD (residues 94–312) of interest; 6xHis (N, cleaved yes); lipoyl domain of dihydrolipoamide acetyltransferase (Bacillus stearothermophilus) (N, cleaved yes); made in house; host or cells: E. coli C41

p53 Y220C mutant DBD [2] = target: T1, p53 Y220C mutant DBD; assay: DSF thermal shift assay, Y220C mutant; assay type: binding; conditions: 250 μM compound
Experimental: (§1) Melting temperatures of the p53 mutants were determined by differential scanning fluorimetry (DSF) using the dye SYPRO Orange (Invitrogen), which quantitatively binds to hydrophobic protein patches that become exposed upon thermal unfolding. Real-time melt analyses were performed using either an Agilent MX3005P (heating rate of 270 K/h excitation/emission filters = 492/610 nm; Tables 2 and 4) or a Corbett Rotor-Gene 6000 real-time qPCR thermocycler (heating rate of 180 K/h, excitation/emission filters = 460/510 nm; Table 3). Tm measurements were performed with 8 μM p53 protein and 5–10 × SYPRO Orange (Life Technologies) in a 25 mM KPi (pH 7.2), 150 mM NaCl, and 1 mM TCEP assay buffer. For measurements of compound-induced Tm shifts (ΔTm), the assay buffer additionally contained 5% DMSO (v/v), with either 250 μM ligand or no ligand (control). ΔTm values were calculated as ΔTm = Tm (protein + compound) – Tm (protein). Native melting curves were measured in quadruplicate and compound-induced thermal shifts in triplicate or higher. Mean values ± SEM are given.

p53 Y220S mutant DBD [3] = target: T2, p53 Y220S mutant DBD (Homo sapiens, UniProt P04637, M133L/N239Y/N268D/V203A/Y220S); assay: DSF thermal shift assay, Y220S mutant; assay type: binding; conditions: 250 μM compound
T2 construct: the mutant p53 DBD (residues 94–312) of interest; 6xHis (N, cleaved yes); lipoyl domain of dihydrolipoamide acetyltransferase (Bacillus stearothermophilus) (N, cleaved yes); made in house; host or cells: E. coli C41
Experimental: as §1

p53 Y220S mutant DBD [4] = target: T2, p53 Y220S mutant DBD; assay: Isothermal titration calorimetry, Y220S mutant; assay type: binding; conditions: for Kd: ITC, 20 °C, 25 mM KPi pH 7.2, 5% DMSO
Experimental: (§2) Isothermal titration calorimetry (ITC) experiments for the Y220C and Y220S mutants were performed using a MicroCal (Amherst) iTC200 calorimeter as described.[14] Briefly, the cell unit contained 30–50 μM protein in a 25 mM KPi (pH 7.2), 150 mM NaCl, 1 mM TCEP, and 5% (v/v) DMSO assay buffer. The syringe contained 0.5–2 mM compound in the same buffer, using injection steps of 2 μL at a rate of 0.5 μL/s (initial injection: 0.5 μL) and 120 s spacing. […] Data analysis was performed using the MicroCal Origin software. ITC measurements for the Y220N mutant were carried out with the same buffers as above but using a Nano ITC microcalorimeter (TA Instruments) and injection steps of 8 μL, at a rate of 0.5 μL/s, and 200 s spacing. Data were processed using the NanoAnalyze software (Version 3.5.0) supplied with the instrument. All measurements were performed at 20 °C.

p53 Y220N mutant DBD [5] = target: T3, p53 Y220N mutant DBD (Homo sapiens, UniProt P04637, M133L/N239Y/N268D/V203A/Y220N); assay: DSF thermal shift assay, Y220N mutant; assay type: binding; conditions: 250 μM compound, Agilent MX3005P, 270 K/h, triplicate, mean ± SEM (Table 4)
T3 construct: the mutant p53 DBD (residues 94–312) of interest; 6xHis (N, cleaved yes); lipoyl domain of dihydrolipoamide acetyltransferase (Bacillus stearothermophilus) (N, cleaved yes); made in house; host or cells: E. coli C41
Experimental: as §1

[6] = target: T4, p53 DBD WT (stabilized M133L/V203A/N239Y/N268D) (Homo sapiens, UniProt P04637, M133L/N239Y/N268D/V203A); assay: DSF thermal shift assay, WT (stabilized quadruple mutant DBD); assay type: binding; conditions: 250 μM compound, Agilent MX3005P, 270 K/h, triplicate, mean ± SEM (Table 4)
T4 construct: the mutant p53 DBD (residues 94–312) of interest; 6xHis (N, cleaved yes); lipoyl domain of dihydrolipoamide acetyltransferase (Bacillus stearothermophilus) (N, cleaved yes); made in house; host or cells: E. coli C41
Experimental: as §1

p53 Y220H mutant DBD = target: T5, p53 Y220H mutant DBD (Homo sapiens, UniProt P04637, M133L/N239Y/N268D/V203A/Y220H); assay: DSF thermal shift assay, Y220H mutant; assay type: binding; conditions: 250 μM compound, Agilent MX3005P, 270 K/h, triplicate, mean ± SEM (Table 4)
T5 construct: the mutant p53 DBD (residues 94–312) of interest; 6xHis (N, cleaved yes); lipoyl domain of dihydrolipoamide acetyltransferase (Bacillus stearothermophilus) (N, cleaved yes); made in house; host or cells: E. coli C41
Experimental: as §1

p53 Y220N mutant DBD [7] = target: T3, p53 Y220N mutant DBD; assay: Isothermal titration calorimetry, Y220N mutant; assay type: binding; conditions: ITC, Nano ITC, 20 °C
Experimental: as §2

[8] = 8 μM protein, 5% DMSO, Rotor-Gene 6000, 180 K/h, quadruplicate, mean ± SEM (Table 3), read-out: Y220C mutant ΔTm
[9] = 8 μM protein, 5% DMSO, Rotor-Gene 6000, 180 K/h, quadruplicate, mean ± SEM (Table 3), read-out: Y220S mutant ΔTm
[10] = Agilent MX3005P, 270 K/h, triplicate, mean ± SEM (Table 4), read-out: ΔTm Y220C
[11] = Agilent MX3005P, 270 K/h, triplicate, mean ± SEM (Table 4), read-out: ΔTm Y220S

Structure (SMILES) | Kd (p53 Y220C mutant DBD [1]; ref 17 (Bauer et al.)) | ΔTm at 250 µM (p53 Y220C mutant DBD [2]; [8]) | ΔTm at 250 µM (p53 Y220S mutant DBD [3]; [9]) | further results
CCn1c2ccc(CNC)cc2c2ccc(-c3cccs3)cc21 [PK9318] | 2.6 ± 0.4 µM | 4.4 ± 0.1 °C | 2.1 °C | 
CCn1c2ccc(CNC)cc2c2ccc(-c3cc(C)cs3)cc21 [PK9328] |  | 3.7 °C | 1.5 ± 0.1 °C | 
CCn1c2ccc(CNC)cc2c2ccc(-c3nccs3)cc21 [PK9322] | 8.3 ± 2.6 µM | 3.4 °C | 3 °C | 
CCn1c2ccc(CNC)cc2c2ccc(-c3ccco3)cc21 [PK9320] | 4.1 ± 0.2 µM | 3.4 °C | 1.8 ± 0.1 °C | 
CCn1c2ccc(CNC)cc2c2ccc(-c3cnoc3)cc21 [PK9424] |  | 2.3 ± 0.1 °C | 1.2 ± 0.1 °C | 
CNCc1ccc2c(c1)c1ccc(Br)cc1n2CC(F)(F)F [PK9301, 1-(7-Bromo-9-(2,2,2-trifluoroethyl)-9H-carbazol-3-yl)-N-methylmethanamine] |  | 3.5 ± 0.1 °C | > 5 °C | Kd (p53 Y220S mutant DBD [4]): 4 ± 1 µM
CCn1c2ccc(CN(C)C)cc2c2ccc(Br)cc21 [PK9285] |  |  |  | ΔTm at 250 µM (p53 Y220N mutant DBD [5]): 1.4 ± 0.1 °C; ΔTm at 250 µM [6]: -0.2 ± 0.1 °C; ΔTm at 250 µM (p53 Y220C mutant DBD [2]; [10]): 2 °C; ΔTm at 250 µM (p53 Y220S mutant DBD [3]; [11]): 2.1 ± 0.1 °C; ΔTm at 250 µM (p53 Y220H mutant DBD): 0.2 °C
CCn1c2ccc(CNC)cc2c2ccc(Br)cc21 [PK9284] | 14 ± 2 µM | 2.4 ± 0.1 °C | 1.8 ± 0.1 °C | 
CCOc1ccc2c3cc(CNC)ccc3n(CC)c2c1 [PK9295] | 62 ± 7 µM | 1.2 ± 0.1 °C | 0.9 °C | 
CCn1c2ccc(CNC)cc2c2ccc(-c3ccc(C)s3)cc21 [PK9327] |  | 3.7 ± 0.2 °C | 1.2 °C | 
CCn1c2ccccc2c2cc(CNC)ccc21 [PK083] |  | 1 ± 0.1 °C | 0.7 ± 0.1 °C | 
CNCc1ccc2c(c1)c1ccccc1n2CC(F)(F)F [PK9255] |  | 1.7 ± 0.1 °C | 3.2 °C | ΔTm at 250 µM (p53 Y220N mutant DBD [5]): 1.4 ± 0.1 °C; Kd (p53 Y220C mutant DBD [1]; ref 14 (Bauer et al.)): 28 µM; ΔTm at 250 µM [6]: 0 °C; Kd (p53 Y220N mutant DBD [7]): 40 µM; Kd (p53 Y220S mutant DBD [4]): 16 ± 2 µM; Tighter binding to Y220S than to Y220C (ratio of Kd) (p53 Y220S mutant DBD [4]; Kd 16 μM (Y220S) vs 28 μM (Y220C)): about 2 times; ΔTm at 250 µM (p53 Y220C mutant DBD [2]; [10]): 1.7 ± 0.1 °C; ΔTm at 250 µM (p53 Y220S mutant DBD [3]; [11]): 3.2 °C; ΔTm Y220H (p53 Y220H mutant DBD): no significant stabilizing effect; ΔTm at 250 µM (p53 Y220H mutant DBD): 0.2 ± 0.1 °C
CCn1c2ccc(CNC)cc2c2ccc(-c3ccoc3)cc21 [PK9321] |  |  |  | ΔTm at 250 µM (p53 Y220N mutant DBD [5]): 1.4 ± 0.1 °C; ΔTm at 250 µM [6]: 0.2 ± 0.1 °C; ΔTm at 250 µM (p53 Y220C mutant DBD [2]; [10]): 3.1 ± 0.1 °C; ΔTm at 250 µM (p53 Y220S mutant DBD [3]; [11]): 2.1 ± 0.1 °C; ΔTm at 250 µM (p53 Y220H mutant DBD): 0.7 ± 0.1 °C
CCn1c2ccc(CNC)cc2c2ccc(-c3sccc3C)cc21 [PK9331] |  | 2.1 ± 0.1 °C | 1.1 ± 0.1 °C | 
CCn1c2ccc(CNC)cc2c2ccc(-c3cscn3)cc21 [PK9323] | 5.3 ± 1.4 µM | 3.1 ± 0.1 °C | 3.7 ± 0.3 °C | ΔTm at 250 µM (p53 Y220N mutant DBD [5]): 0.7 ± 0.1 °C; ΔTm at 250 µM [6]: -0.4 ± 0.2 °C; Kd (p53 Y220S mutant DBD [4]): 5.9 ± 1.3 µM; ΔTm at 250 µM (p53 Y220C mutant DBD [2]; [10]): 3.1 ± 0.1 °C; ΔTm at 250 µM (p53 Y220S mutant DBD [3]; [11]): 3.7 ± 0.3 °C; ΔTm at 250 µM (p53 Y220H mutant DBD): -0.3 ± 0.1 °C
